From patent publication US20250304973A1, “HIGH-AFFINITY THROMBIN APTAMERS AND METHODS OF USE” (Ayass Bioscience LLC, priority 2024, published 2025) come the findings set out here.

Series [1] has as its system whole human blood. Description: Dose-dependent prothrombin time (PT) in whole blood. In kind it is biochemical. The conditions noted are these: 1, 2, 3, 4 uM; 2 h room temperature; citrated whole human blood. The method, then: 139. […] PT time was measured using RecombiPlasTin 2G for quantitative determination in human citrated plasma of PT and Fibrinogen on an ACLTOP coagulation analyzer manufactured by Instrumentation Laboratory (Bedford, MA, USA). To assess the activity of the aptamers in a dose-dependent manner in whole blood, human blood samples were collected in citrate-treated tubes. The blood samples were then incubated at room temperature for 2 h in the absence or presence of varying concentrations of the thrombin aptamers. To measure the Prothrombin Time (PT) on the ACLTOP coagulation analyzer, plasma was obtained by centrifuging the samples at 1500×g for 10 min at 4° C. For the dose dependence study, concentrations of 1 uM, 2 uM, 3 uM, and 4 uM of AYA1809002 and AYA1809004 were utilized.
156. To facilitate future applications, gaining a comprehensive understanding of the activity of aptamers in whole blood is of paramount importance. To assess their effectiveness, we tested the selected aptamers at various concentrations in whole blood to evaluate their impact on Factor II activity and PT time. Human blood samples were collected in citrate- treated tubes. The blood samples were then incubated at room temperature for 2 h in the absence or presence of varying concentrations of thrombin aptamers. […]

Series [2] addresses T1, clot-bound thrombin (Homo sapiens, UniProt P00734).
T1 construct: from tissue; host or cells: washed fibrin clots formed from platelet-rich plasma of healthy donors
Description: Clot-bound thrombin inhibition. The conditions noted are these: for inhibition of clot-bound thrombin: washed clots from platelet-rich plasma, fluorogenic substrate, 90 min, 37° C. In kind it is biochemical. As to the method:
145. For the inhibition study of clot-bound thrombin, blood samples were collected from healthy donors using citrate-treated tubes and centrifuged at 200×g for 15 min at room temperature. The resulting supernatant consisting of platelet-rich plasma (PRP) was collected and aliquots of 500 μL were transferred to microfuge tubes containing 50 μL of 300 mM CaCl2). The mixture was then incubated for 2 h at 37° C. in an incubator without agitation. The formed clots were washed ten times over the course of 16 h at room temperature; each time, 1 mL aliquots of TBS buffer (50 mM Tris-HCl, 100 mM NaCl, pH 7.4) were added to the clots with mixing. Subsequently, the washed clots were transferred to the assay plate (ThermoFisher Scientific, cat #3915, Waltham, MA, USA). […] After a 20 min incubation period with agitation, a thrombin substrate (, Thrombin substrate III, Fluorogenic, Sigma-Aldrich, cat #605211, St. Louis, MO, USA) was added to each sample at a final concentration of 200 μM. Fluorescence measurements were performed using a SYNERGY/HTX multi-mode reader (BioTek, Agilent Technologies, Santa Clara, CA 95051, USA) with the excitation/emission wavelengths set at 360/460 nm. The measurements were recorded for a total duration of 90 min at a temperature of 37° C.

For series [3], the system named is human peripheral blood mononuclear cells (hPBMCs). Description: Immunogenic reaction on human PBMCs (LEGENDplex Human Inflammation Panel). In kind it is cell-based. To be noted: for immune stimulation (secretion of inflammatory cytokines and chemokines): 1, 5, 10 uM aptamer, 24 and 72 h, versus mock or control aptamer. As to the method:
147. Human PBMCs were isolated from buffy coats provided by Carter BloodCare(Bedford, TX, USA). Isolation was carried out through density-gradient centrifugation utilizing FicollPaque Plus from GE Healthcare. The isolated human PBMCs suspended in cRPMI media were subjected to stimulation with or without the AYA1809002 and AYA1809004 aptamers and a control aptamer. Various concentrations (1, 5, and 10 uM) of these aptamers were used, along with positive control stimuli such as LPS (200 ng/mL), ODN 1826 (20 uM, Invitrogen), or a combination of LPS (100 ng/mL) and ODN 1826 (10 uM). Following incubation periods of 24 and 72 h, the cell supernatant was collected via centrifugation at 200 g for 3 min. Cytokine levels were evaluated using the LEGENDplex Human Inflammation Panel 1 from BioLegend (cat #740808, San Diego, CA, USA) following the manufacturer's protocol, soluble analytes were acquired using a Navios EX flow cytometer (Beckman Coulter Inc, Pasadena, CA USA), and subsequent analysis was performed using BioLegend's LEGENDPLEX™ system(San Diego, CA, USA).

The test system of series [4] is Salmonella typhimurium strains TA98, TA100, TA1535, TA1537 and Escherichia coli strains wp2 [pKM101] and wp2 uvrA. Kind of series: Ames test (Xenometrix Ames MPF PENTA I). In kind it is cell-based. The conditions noted are these: 0.5 uM to 10 uM; with and without S9. As to the method: 148. The mutagenic potential of AYA1809002 and AYA1809004 was evaluated using the Ames test with the Xenometrix Ames MPF PENTA I kit, including S9 and Positive Controls (Aniara Diagnostica, code: ACO1-512-S2-P; manufacturer's part number: C01-512-S2-P, West Chester Township, OH).
165. To assess the mutagenicity of the aptamers, we performed Ames test, a widely used assay for evaluating the mutagenicity of chemical compounds. The Ames test is a bac-terial reverse mutation assay that detects the ability of a substance to induce mutations in the DNA of certain strains of bacteria. It utilizes various bacterial strains, including Salmonella typhimurium strains TA98, TA100, TA1535, and TA1537, as well as the Escherichia coli strains wp2 [pKM101]and wp2 uvrA. To evaluate the mutagenic potential of an aptamer, amino acid-requiring bacterial organisms are exposed to different concentrations of the aptamer and mutagenic events are assessed by selecting for reversion events. In this context, the aptamers AYA1809002 and AYA1809004 were supplemented at increasing concentrations ranging from 0.5 uM to 10 uM.

“Also recorded” adds a separate entry of the source.

For the substance “AYA1809002: ssDNA thrombin aptamer GCGGTGTTGCTGGGGTTGGGAGGTTGGAGGAAGCAATCGC”, the “effect on prothrombin time (PT) in whole blood” value in series [1] was “corresponding increase in prothrombin time; also recorded: corresponding increase in PT”. Moreover, in series [2] (comparison between aptamers and with dabigatran 2 μM), the “level of clot-bound thrombin inhibition, comparison” value is given as “higher level of inhibition compared to AYA1809004”. Also, the “inhibition of clot-bound thrombin” value in series [2] is “inhibit clot-bound thrombin in a concentration-dependent manner”. In series [3], the “immune stimulation (secretion of inflammatory cytokines and chemokines)” value is given as “do not exhibit immune-stimulating properties; also recorded: did not exhibit immune-stimulating properties”. In series [3] (Table 3), the “Safety: immunogenicity and side effects” value is given as “Low immunogenicity”. For the same substance, in series [4], the “mutagenicity (revertants)” value is recorded as “do not exhibit mutagenic properties; also recorded: did not exhibit mutagenic properties”.
As for “AYA1809004: ssDNA thrombin aptamer TCGTCAAGGTACGGTTGGGGGGGTGGGTGTTGACGTTGAA (DNA, backbone not given here)”, in series [1], the “effect on prothrombin time (PT) in whole blood” value was “corresponding increase in prothrombin time”. For the same substance, the “inhibition of clot-bound thrombin” value in series [2] is on record as “inhibit clot-bound thrombin in a concentration-dependent manner”. In addition, the “immune stimulation (secretion of inflammatory cytokines and chemokines)” value in series [3] is listed as “do not exhibit immune-stimulating properties”. The “mutagenicity (revertants)” value in series [4] is given as “do not exhibit mutagenic properties”.
